The source of these data is paper PMC7887271, “Fast acting allosteric phosphofructokinase inhibitors block trypanosome glycolysis and cure acute African trypanosomiasis in mice” (Nature Communications, 2021).

Where two headings read alike, the source gives them in different places.

Data set [1] deals with bloodstream form of T. brucei strain Lister 427. The experiment in a line: T. b. brucei 427 growth inhibition assay (LILiT, Alamar Blue). It is filed as cell-based. The conditions noted are these: Trypanosoma brucei. The method, then:
The ‘in vitro’ parasite killing assay used the BSF of the non-human pathogenic subspecies T. b. brucei, strain Lister 427, cultured in HMI-9 medium containing 10% foetal bovine serum. A second cell line, T. b. brucei GVR35-Luc2 which constitutively expresses firefly luciferase was grown in Modified HMI-9 plus 20% foetal calf serum supplemented with 20% Serum Plus (Sigma) and 0.15 μg mL^−1 puromycin. Both strains of trypanosomes were cultured in T-25 vented cap flasks at 37 °C and 5% CO2.
The ‘in vitro’ parasite killing assay used the bloodstream-form of the non-human pathogenic subspecies T. b. brucei, strain Lister 427 (a gift from Professor Keith Matthews) which was cultured in HMI-9 medium containing 10% fetal bovine serum (FBS). A second cell line, T. b. brucei GVR35-Luc2 which constitutively expresses firefly luciferase (5) was grown in Modified HMI-9 plus 20% fetal calf serum (FCS) supplemented with 20% Serum Plus (Sigma) and 0.15 μg/ml puromycin as described previously (5). Both strains of trypanosomes were cultured in T-25 vented cap flasks at 37 °C and 5% CO2.
Growth inhibition tests of bloodstream-form T. b. brucei Lister 427 were carried out using the LILiT (long incubation low inoculation test) method (6). The parasites were cultured in complete HMI-9 medium containing 10% FBS in 96-well plates (Greiner Inc.) with approximately 2500 trypanosomes per well. A 3-fold dilution series (in the range from 45 µM – 0.020 µM) of the inhibitor compounds were prepared in the plate; the maximal concentration of DMSO was 0.45%. After 72 hours of incubation at 37 °C and 5% CO2, 50 µl Alamar Blue (0.2% diluted with Dulbecco’s-phosphate buffered saline (D-PBS, Sigma) was added to each well and plates were incubated at 37 °C and 5% CO2 for 4 hours. Fluorescence was read on the BMG multiplate reader using an excitation wavelength of 530 nm and an emission wavelength of 590 nm.

The test system of another data set is T. b. brucei Lister 427. The experiment in a line: Wash-out studies, Lister 427. It is filed as cell-based. The conditions noted are these: concentrations greater than 2 to 4 µM, exposure longer than 4-6 hours, 3 days in drug free medium. How it is done: In order to estimate a killing-dose for in vivo trials, a series of washout experiments were carried out: parasites were incubated with a given concentration of compound before washing out the drug and determining whether the parasites were still viable and able to proliferate. […] The existence of a small population of parasites more resistant to the effects of the CTCB compounds might be explained by subpopulations of parasites being present at different stages of the cell cycle. The parasite cultures used in the killing experiments are not synchronised, and it is likely that ATP requirement varies depending on cell cycle phase and a subpopulation with lower ATP requirement may be less susceptible to the CTCB compounds, however, this phenomenon needs further investigation.
In vitro ‘wash-out’ studies were performed to determine the reversibility of the action of the CTCB compounds on trypanosomes, after a certain exposure time, and thus to assess whether the compounds have a trypanocidal or trypanostatic effect. These experiments were carried out with both the T. b. brucei Lister 427 and T. b. brucei GVR35-luc strains. […] The cell suspensions were then incubated under regular culture conditions for 3 days and parasite growth monitored daily by light microscopy. […]

Another data set concerns T. b. brucei GVR35-luc. The data set can be described thus: Wash-out studies, GVR35. The data set is classed as cell-based. The conditions noted are these: concentrations greater than 2 to 4 µM, exposure longer than 4-6 hours, 3 days in drug free medium. The method, then: In vitro ‘wash-out’ studies were performed to determine the reversibility of the action of the CTCB compounds on trypanosomes, after a certain exposure time, and thus to assess whether the compounds have a trypanocidal or trypanostatic effect. These experiments were carried out with both the T. b. brucei Lister 427 and T. b. brucei GVR35-luc strains. Trypanosomes at a density of 500,000 cells/ml in culture medium were incubated with CTCB compounds at varying concentrations in 12-well plates in volumes of 1 ml for different periods of time at 37°C. Subsequently, the cultures were centrifuged for 5 min at 2600 x g, the cells washed by re-suspending the pellets in 1 ml medium without inhibitors, centrifuged again and re-suspended in 1 ml fresh medium. The cell suspensions were then incubated under regular culture conditions for 3 days and parasite growth monitored daily by light microscopy.
The results for both strains are similar with no grow-back at concentrations of CTCB compounds greater than 2 to 4 µM with drug exposure longer than 4-6 hours.

In a further data set the test system is T. b. gambiense. The experiment in a line: EC50 against in vitro cultured T. b. gambiense (STMI). The data set is classed as cell-based. Particulars: Trypanosoma brucei.
The next data set concerns the target T1, CYP2C19 (Homo sapiens, UniProt P33261).
T1 construct: purchased BD Biosciences
The experiment in a line: Inhibition of CYP2C19. It is filed as in vitro ADME. Particulars: CYP450 isoform inhibition kit (BD Biosciences), probe CEC. The method, then: A HepG2 cytotoxicity assay was used to determine a cellular selectivity index. HepG2 cells were seeded into 96-well plates in EMEM medium. Compounds were assessed for their effect upon cellular viability (Supplementary Methods 5.1). Inhibition of CYP450 was determined using kits from BD Biosciences (Supplementary Methods 5.2). Metabolic stability was determined using mouse […] tested at a single concentration of 5 µM. Plasma protein binding was determined using mouse and human plasma at a single concentration of 10 µM (Supplementary Methods 5.4). All PK studies in mice were carried out by Pharmidex (Supplementary Methods 6.1).
The compounds were investigated for their inhibitory effect on cytochrome P450 (CYP450) activity using five CYP450 isoforms (with fluorescent substrates in brackets): 3A4 (two substrates, BFC and DBF), 2D6 (AMMC), 2C9 (MFC), 2C19 (CEC) and 1A2 (CEC). Kits from BD Biosciences were used along with the method described by the manufacturer. […] Fluorescence was measured using a SpectraMax M5 plate reader.

The nature of data set [2]: Mouse hepatocytes intrinsic clearance. The data set is classed as in vitro ADME. From the text:
Methods are described in Supplementary Methods 5 and 6. Enzyme assay results are means ± SD in multiple assays. ADME results are averages of n = 2 or 3 measurements in individual assays.

Where [3] appears, read: 72 h, Alamar Blue, read-out: EC50 (µM) in vitro parasite killing of bloodstream form T. brucei Lister 427 (Tbb EC50).
Where [4] appears, read: Glycerol 0.75 mM, read-out: EC50.
Setting [5] is: Glycerol 5.0 mM, read-out: EC50.

T1 sequence (P33261 whole entry): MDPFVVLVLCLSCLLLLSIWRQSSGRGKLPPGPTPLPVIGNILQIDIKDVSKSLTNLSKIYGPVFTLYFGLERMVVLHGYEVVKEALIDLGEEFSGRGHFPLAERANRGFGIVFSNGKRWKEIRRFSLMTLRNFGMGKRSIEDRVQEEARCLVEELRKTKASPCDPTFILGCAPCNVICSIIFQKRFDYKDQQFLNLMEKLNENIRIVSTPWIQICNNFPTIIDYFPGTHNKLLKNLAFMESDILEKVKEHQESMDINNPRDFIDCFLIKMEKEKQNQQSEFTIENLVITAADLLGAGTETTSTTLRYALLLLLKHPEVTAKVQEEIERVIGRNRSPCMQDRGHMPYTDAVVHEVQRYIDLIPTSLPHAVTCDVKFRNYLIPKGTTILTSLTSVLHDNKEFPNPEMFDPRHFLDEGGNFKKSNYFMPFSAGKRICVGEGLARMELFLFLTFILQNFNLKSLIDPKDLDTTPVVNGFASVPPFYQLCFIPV

Turning to `CN(C)CCn1ccc2c(ccn2Cc2ccc(Cl)c(Cl)c2)c1=O` [CTCB-405, 1-[(3,4-Dichlorophenyl)methyl]-5-[2-(dimethylamino)ethyl] pyrrolo[3,2-c]pyridin-4-one], the EC50 turned out to be 0.37 ± 0.04 µM in data set [1] (setting [3]); 0.27 µM in data set [1] (Glycerol 0 mM, read-out: EC50); 0.33 µM in data set [1] (setting [4]); 0.45 µM in data set [1] (setting [5]); 0.32 µM in data set [1] (Glycerol […], read-out: EC50); 190 nM with T. b. gambiense. Moreover, the “wash-out: grow-back after removal of drug” value with T. b. brucei Lister 427 and in the data set on T. b. brucei GVR35-luc was “no grow-back” each time. At CYP2C19, this compound registered an inhibition at 10 µM of 64%. Besides, the “Mouse hepatocytes Clint” value in data set [2] was 3.7 µL min^−1 per 10^6 cells.
As to `CNCCn1ccc2c(ccn2Cc2ccc(Cl)c(Cl)c2)c1=O` [CTCB-435], the EC50 in data set [1] (72 h, read-out: EC50 (µM) in vitro parasite killing of bloodstream form T. brucei Lister 427 (Tbb EC50), 72 h, Alamar Blue) came out at 0.25 ± 0.05 µM.
Consider `CN(C)CCn1ccc2c(ccn2Cc2ccc(Cl)c(Br)c2)c1=O` [CTCB-470, 1-[(3-Bromo-4-chlorophenyl)methyl]-5-[2-(dimethylamino)ethyl] pyrrolo[3,2-c]pyridin-4-one], for which the EC50 was 0.31 ± 0.03 µM in data set [1] (setting [3]); 0.23 µM in data set [1] (Glycerol 0 mM, read-out: EC50); 0.26 µM in data set [1] (setting [4]); 0.26 µM in data set [1] (Glycerol […], read-out: EC50); 140 nM in the data set on T. b. gambiense. Also, the “wash-out: grow-back after removal of drug” value in the data set with T. b. brucei Lister 427 and in the data set on T. b. brucei GVR35-luc was “no grow-back” in each case. The compound further displayed an inhibition at 10 µM at CYP2C19 of 45%. Moreover, in data set [2], the “Mouse hepatocytes Clint” value turned out to be 3.6 µL min^−1 per 10^6 cells.
Consider `CN(C)CCn1ccc2c(ccn2Cc2ccc(F)c(Br)c2)c1=O` [CTCB-508, 1-[(3-Bromo-4-fluorophenyl)methyl]-5-[2-(dimethylamino)ethyl] pyrrolo[3,2-c]pyridin-4-one], for which the EC50 in data set [1] (setting [3]) was determined as 0.3 ± 0.02 µM; in data set [1] (setting [4]), 0.31 µM; in data set [1] (setting [5]), 0.44 µM; in data set [1] (Glycerol […], read-out: EC50) it was 0.34 µM.
